In PubChem BioAssay AID328 (DTP/NCI, 2004):
Toxic doses and inconclusive results are not listed.

Tested on: BDF1 mice, P388 leukemia ip, median survival T/C
Assay: NCI In Vivo Anticancer Drug Screen. Data for tumor model P388 Leukemia (intraperitoneal) in B6D2F1 (BDF1) mice
Details: endpoint: median survival time, higher = longer survival
Procedure, shortened: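 Each value expresses how treatment altered survival: treated-mouse outcome over vehicle-mouse outcome, both groups bearing the transplanted tumour.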

CC[C@]1(O)C[C@H]2CN(CCc3c([nH]c4ccccc34)[C@@](C(=O)OC)(c3cc4c(cc3OC)N(C)[C@H]3[C@@](O)(C(=O)OC)[C@H](OC(C)=O)[C@]5(CC)C=CCN6CC[C@]43[C@@H]65)C2)C1
T/C (dose: 0.03 mg/kg/injection, schedule: Q03HX024 (ip), vehicle: saline): 185 % of control | T/C (dose: 0.06 mg/kg/injection, schedule: Q03HX016 (ip), vehicle: saline): 162 % of control | T/C (dose: 0.12 mg/kg/injection, schedule: Q01DX009 (ip), vehicle: saline): 166 % of control | T/C (dose: 0.12 mg/kg/injection, schedule: Q01DX009 (ip), vehicle: water): 252 % of control | T/C (dose: 0.12 mg/kg/injection, schedule: Q03HX016 (ip), vehicle: saline): 222 % of control | T/C (dose: 0.12 mg/kg/injection, schedule: Q03HX024 (ip), vehicle: saline): 222 % of control | T/C (dose: 0.25 mg/kg/injection, schedule: Q01DX009 (ip), vehicle: saline): 185 % of control | T/C (dose: 0.25 mg/kg/injection, schedule: Q01DX009 (ip), vehicle: water): 240 % of control | T/C (dose: 0.25 mg/kg/injection, schedule: Q01DX010 (ip), vehicle: water): 209 % of control | T/C (dose: 0.25 mg/kg/injection, schedule: Q03HX008 (ip), vehicle: saline): 185 % of control | T/C (dose: 0.25 mg/kg/injection, schedule: Q03HX016 (ip), vehicle: saline): 214 % of control | T/C (dose: 0.25 mg/kg/injection, schedule: Q04DX003 (ip), vehicle: saline): 166 % of control | T/C (dose: 0.5 mg/kg/injection, schedule: Q01DX009 (ip), vehicle: saline): 214 % of control | T/C (dose: 0.5 mg/kg/injection, schedule: Q01DX009 (ip), vehicle: water): 222 % of control | T/C (dose: 0.5 mg/kg/injection, schedule: Q01DX010 (ip), vehicle: water): 195 % of control | T/C (dose: 0.5 mg/kg/injection, schedule: Q04DX003 (ip), vehicle: saline): 196 % of control | T/C (dose: 0.5 mg/kg/injection, schedule: Q08DX002 (ip), vehicle: saline): 170 % of control | T/C (dose: 0.65 mg/kg/injection, schedule: Q04DX003 (ip), vehicle: saline): 200 % of control | T/C (dose: 1.0 mg/kg/injection, schedule: Q01DX009 (ip), vehicle: saline): 92 % of control | T/C (dose: 1.0 mg/kg/injection, schedule: Q03HX008 (ip), vehicle: saline): 200 % of control | T/C (dose: 1.0 mg/kg/injection, schedule: Q03HX016 (ip), vehicle: saline): 96 % of control | T/C (dose: 1.0 mg/kg/injection, schedule: Q04DX003 (ip), vehicle: saline): 214 % of control | T/C (dose: 1.0 mg/kg/injection, schedule: Q08DX002 (ip), vehicle: saline): 188 % of control | T/C (dose: 1.08 mg/kg/injection, schedule: Q04DX003 (ip), vehicle: saline): 193 % of control | T/C (dose: 1.8 mg/kg/injection, schedule: Q04DX003 (ip), vehicle: saline): 234 % of control | T/C (dose: 2.0 mg/kg/injection, schedule: Q01DX001 (ip), vehicle: saline): 162 % of control | T/C (dose: 2.0 mg/kg/injection, schedule: Q01DX001 (ip), vehicle: water): 150 % of control | T/C (dose: 2.0 mg/kg/injection, schedule: Q04DX003 (ip), vehicle: saline): 96 % of control | T/C (dose: 2.0 mg/kg/injection, schedule: Q08DX002 (ip), vehicle: saline): 214 % of control | T/C (dose: 3.0 mg/kg/injection, schedule: Q04DX003 (ip), vehicle: saline): 95 % of control | T/C (dose: 4.0 mg/kg/injection, schedule: Q01DX001 (ip), vehicle: saline): 185 % of control | T/C (dose: 4.0 mg/kg/injection, schedule: Q01DX001 (ip), vehicle: water): 161 % of control | T/C (dose: 4.0 mg/kg/injection, schedule: Q08DX002 (ip), vehicle: saline): 100 % of control | T/C (dose: 8.0 mg/kg/injection, schedule: Q01DX001 (ip), vehicle: saline): 177 % of control | T/C (dose: 8.0 mg/kg/injection, schedule: Q08DX002 (ip), vehicle: saline): 96 % of control | T/C (dose: 16.0 mg/kg/injection, schedule: Q01DX001 (ip), vehicle: saline): 188 % of control | T/C (dose: 625.0 micrograms/kg/injection, schedule: Q04DX003 (ip), vehicle: saline): 200 % of control | T/C (dose: 648.0 micrograms/kg/injection, schedule: Q04DX003 (ip), vehicle: saline): 180 % of control | T/C (dose: 1080.0 micrograms/kg/injection, schedule: Q04DX003 (ip), vehicle: saline): 195 % of control | T/C (dose: 1250.0 micrograms/kg/injection, schedule: Q04DX003 (ip), vehicle: saline): 238 % of control | T/C (dose: 1800.0 micrograms/kg/injection, schedule: Q04DX003 (ip), vehicle: saline): 190 % of control | T/C (dose: 2500.0 micrograms/kg/injection, schedule: Q04DX003 (ip), vehicle: saline): 230 % of control
